Laboratory results reported in US5128346A, “Derivatives of D-glutamic acid and D-aspartic acid” (priority 1990, dated 1992).
Counter-ions that a name gives are not always drawn. Like-named read-outs stand apart in the source and are kept apart here.

Experiments:
guinea pig acini = assay: Inhibition of CCK8-stimulated amylase release from acini; format: cell-based; conditions: Cavia porcellus, 0.5 h, CCK8 3×10^-10 M, 37° C., 30 min
Procedure: Protocol for Amylase This assay was performed using the modified protocol of Lin et al., J. Pharmacol. Exp. Ther. 236, 734, 1986. 1. Guinea Pig Acini Preparation Guinea pig acini were prepared by the method of Bruzzone et al. (Biochem. J. 226, 621-624, 1985) as follows. Pancreas was dissected out and connective tissues and blood vessels were removed. The pancreas was cut into small pieces (2mm) by a scissor and placed in a 15 mL conical plastic tube containing 2.5 mL of Krebs Ringer HEPES (KRH) buffer plus 400 units per mL of collagenase. The composition of the KRH buffer was: HEPES, 12.5 mM: NaCl, 118 mM; KCI, 4.8 mM; CaCl2, 1 mM; […]; MgSO4, 1.2 mM; NaHCO3, 5 mM; glucose, 10 mM, pH 7.4. The buffer was supplemented with MEM vitamins, 1% MEM amino acids and 0.001% aprotinin. The tube was shaken by hand until the suspension appeared homogeneous, usually 5 to 6 min. 5 mL of the KRH, without collagenase and with 0.1% BSA, were added and the tube was centrifuged at 50×g for 35 sec. The supernatant was discarded and 6 mL of the KRH were added to the cell pellet. […] This wash procedure was repeated once. The cell pellet from the last centrifugation step was then resuspended in 15 mL of KRH containing 0.1% BSA. The contents were filtered through a dual nylon mesh, size 275 and 75 micrometers. The filtrate, containing the acini, were centrifuged at 50×for 3 min. The acini were then resuspended in 5 mL of KRH-BSA buffer for 30 min at 37° C., under 100% O2, with a change of fresh buffer at 15 min. 2. Amylase Assay After the 30 min incubation time, the acini were resuspended in 100 volumes of KRH-BSA buffer, containing 3 microM phosphoramidon and 100 microM bestatin. […] The final assay volume was 500 microliters. Tubes were vortexed and placed in a 37° C. water bath, under 100% O2, for 30 min. Afterward, tubes were centrifuged at 10,000 g for 1 min. […] The results of this assay are […]

Type-B CCK receptor = target: T1, Type-B CCK receptor (Cavia porcellus, UniProt H0VZC5); assay: Radioligand binding, [^125 I]-BH-CCK8, Type-B CCK receptor (cerebral cortical membranes); design: species or system guinea pig
T1 construct: cortex and pancreas were removed and rinsed with ice cold saline; from tissue; host or cells: guinea pig cerebral cortex, membranes
T1 sequence (H0VZC5 1-426): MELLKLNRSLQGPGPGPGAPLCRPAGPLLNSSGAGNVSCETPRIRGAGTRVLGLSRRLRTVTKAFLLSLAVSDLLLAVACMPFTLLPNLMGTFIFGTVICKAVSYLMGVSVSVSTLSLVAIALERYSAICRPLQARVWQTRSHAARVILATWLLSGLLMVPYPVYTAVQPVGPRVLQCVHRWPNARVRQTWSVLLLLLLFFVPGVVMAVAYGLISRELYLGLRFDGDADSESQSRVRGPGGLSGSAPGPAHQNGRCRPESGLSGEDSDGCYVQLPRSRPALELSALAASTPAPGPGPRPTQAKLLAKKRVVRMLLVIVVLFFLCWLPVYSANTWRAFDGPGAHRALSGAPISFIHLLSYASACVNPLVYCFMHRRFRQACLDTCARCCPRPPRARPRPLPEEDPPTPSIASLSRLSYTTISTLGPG
Source text: (§1) CCK8 [Asp-Tyr(SO3 H)-Met-Gly-Trp-Met-Asp-Phe-NH2 ] was purchased from Beckman Instruments (Palo Alto, Ca/) and Peptide International (Louisville, Ky.). Chymostatin, L-Try-Gly, puromycin, bestatin, EGTA, HEPES and BSA were purchased from Sigma Chemical Co. (St. Louis, Mo.). [^125 I]BH-CCK8 (specific activity, 2200 Ci/mmol) and Aquasol 2 scintillation cocktail were obtained from New England Nuclear (Boston, Ma.). Male guinea pigs, 250 to 325 g, were obtained from Scientific Small Animal Laboratory and Farm (Arlington Heights, Ill.). Collagenase, 300 units per mg, was purchased from Worthington (Frehold, N.J.)
(§2) 1. Guinea Pig Cerebral Cortical and Pancreatic Membrane Preparations
(§3) Cortical and pancreatic membrances were prepared as described (Lin and Miller; J. Pharmacol. Exp. Ther. 232, 775-780, 1985). In brief, cortex and pancreas were removed and rinsed with ice cold saline. Visible fat and connective tissues were removed from the pancreas. Tissues were weighed and homogenized separately in approximately 25 mL of ice-cold 50 mM Tris-HCl buffer, pH 7.4 at 4° C., with a Brinkman Polytron for 30 sec, setting 7. The homogenates were centrifuged for 10 min at 1075×g and pellets were discarded. The supernatants were saved and centrifuged at 38,730×g for 20 min. The resultant pellets were rehomogenized in 25 mL of 50 mM Tris-HCl buffer with a Teflon-glass homogenizer, 5 up and down strokes. The homogenates were centrifuged again at 38,730×g for 20 min. Pellets were then resuspended in 20 mM HEPES, containing 1 mM EGTA., 118 mM NaCl, 5 mM MgCl2, 100 microM bestatin, 3 microM phosphoramidon, pH 7.4 at 22° C., with a Teflon-glass homogenizer, 15 up and down strokes. Resuspension volume for the cortex was 15-18 mL per gm of original wet weight and 60 mL per gm for the pancreas.
^125 I]Bolton-Hunter CCK8, and test compounds were diluted with HEPES-EGTA-salt buffer (see above) containing 0.5% bovine serum albumin (BSA). To 1 mL Skatron polystyrene tubes were added 25 microliters of test compounds, 25 miroliters of [^125 I]BH-CCK8, and 200 microliters of membrane suspension. The final BSA concentration was 0.1%. The cortical tissues were incubated at 30° C. for 150 min and pancreatic tissues were incubated at 37° C. for 30 min. Incubations were terminated by filtration using Skatron Cell Harvester and SS32 microfiber filter mats. […] IC50 's were determined from the Hill analysis.

Type-A CCK receptor = target: T2, Type-A CCK receptor (Cavia porcellus, UniProt Q63931); assay: Radioligand binding, [^125 I]-BH-CCK8, Type-A CCK receptor (pancreatic membranes); design: species or system guinea pig
T2 construct: cortex and pancreas were removed and rinsed with ice cold saline; from tissue; host or cells: guinea pig pancreas, membranes
T2 sequence (Q63931 1-430): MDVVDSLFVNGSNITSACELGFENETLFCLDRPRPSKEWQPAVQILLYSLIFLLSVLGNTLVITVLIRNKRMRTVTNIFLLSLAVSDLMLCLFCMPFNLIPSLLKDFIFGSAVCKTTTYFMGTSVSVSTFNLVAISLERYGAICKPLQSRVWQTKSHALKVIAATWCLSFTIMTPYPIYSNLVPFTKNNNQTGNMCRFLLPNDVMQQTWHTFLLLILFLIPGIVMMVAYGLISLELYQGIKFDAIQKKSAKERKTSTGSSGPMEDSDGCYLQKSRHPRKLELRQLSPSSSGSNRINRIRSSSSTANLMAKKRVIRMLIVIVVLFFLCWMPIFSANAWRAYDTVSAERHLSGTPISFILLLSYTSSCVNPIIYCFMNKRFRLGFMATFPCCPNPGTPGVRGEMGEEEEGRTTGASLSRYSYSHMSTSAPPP
Source text: as §1, §2, §3
^125 I]Bolton-Hunter CCK8, and test compounds were diluted with HEPES-EGTA-salt buffer (see above) containing 0.5% bovine serum albumin (BSA). To 1 mL Skatron polystyrene tubes were added 25 microliters of test compounds, 25 miroliters of [^125 I]BH-CCK8, and 200 microliters of membrane suspension. The final BSA concentration was 0.1%. The cortical tissues were incubated at 30° C. for 150 min and pancreatic tissues were incubated at 37° C. for 30 min. Incubations were terminated by filtration using Skatron Cell Harvester and SS32 microfiber filter mats. The specific binding of [^125 I]BH-CCK8, defined as the difference between binding in the absence and presence of 1 microM CCK8, was 85 90% of pancreas. IC50 's were determined from the Hill analysis.

CCK8 = assay: Inhibition of CCK induced gastric emptying (charcoal meal); format: in vivo; conditions: 100 mg/kg p.o., CCK8 80 micrograms/kg s.c.
Procedure: Inhibition Of CCK Induced Gastric Emptying
Three fasted mice were dosed (p.o.) with the test compound. CCK8 (80 micrograms/kg s.c.) was administered within 60 minutes and charcoal meal (0.1 mL of 10% suspension) was given orally 5 minutes later. The animals were sacrificed within an additional 5 minutes.
Gastric emptying, defined as the presence of charcoal within the intestine beyond the pyloric sphincter, is inhibited by CCK8. Gastric emptying observed in more than 1 or 3 mice (greater than 1) indicates antagonism of CCK8.

[1] = guinea pig pancreatic membranes, 37° C., 30 min, IC50 from Hill analysis

SMILES | IC50 (Type-B CCK receptor) [nM] | IC50 (Type-A CCK receptor; [1]) [nM] | IC50 (Type-A CCK receptor) [nM] | IC50 (guinea pig acini) [nM] | Gastric emptying observed (mice out of three; more than 1 indicates antagonism of CCK8) (CCK8)
CCCCCN(CCCCC)C(=O)[C@@H](CCC(=O)O)NC(=O)c1c[nH]c2ccccc12 [Example 12, N-(3'-Indolylcarbonyl)-R-Glu-N^α,N^α -di-n-penylamide] | 3200 | 260 | – | 830 | –
CCCCCN(CCCCC)C(=O)[C@H](CCC(=O)O)NC(=O)c1cc2ccccc2[nH]1 [Example 8, N-(2'-Indolylcarbonyl)-S-Glu-N^α,N^α -di-n-pentylamide] | – | 200 | – | 590 | –
CCCCCN(CCCCC)C(=O)[C@@H](CCC(=O)O)NC(=O)c1cc2ccccc2[nH]1 [Example 4, N-(2,-Indolylcarbonyl)-R-Glu-N^α,N^α -di-n-pentylamide] | – | – | 20 | 22 | –
CCCCCN(CCCCC)C(=O)[C@@H](CCC(=O)O)NC(=O)c1cnc2ccccc2c1 [Example 118, N-(3'-Quinolylcarbonyl)-R-Glu-N^α,N^α -di-n-pentylamideDicyclohexylamine salt] | – | – | – | – | three out of three
CCCCCN(CCCCC)C(=O)[C@@H](CCC(=O)O)NC(=O)c1cnc2ccccc2c1 [Example 15, N-(3'-Quinolylcarbonyl)-R-Glu-N^α,N^α -di-n-pentylamide] | 3500 | – | 5.4 | 16 | –

Now from value to molecule, other results behind:

IC50 (Type-B CCK receptor) [nM] | IC50 (Type-A CCK receptor; [1]) [nM] | IC50 (Type-A CCK receptor) [nM] | SMILES | IC50 (guinea pig acini) [nM] | Gastric emptying observed (mice out of three; more than 1 indicates antagonism of CCK8) (CCK8)
2600 | – | 27 | CCCCCN(CCCCC)C(=O)[C@@H](CC(=O)O)NC(=O)c1cc2ccccc2[nH]1 [Example 19, N-(2'-Indolylcarbonyl)-R-Asp-N^α,N^α -di-n-pentylamide] | 55 | –
2000 | – | 210 | O=C(O)CC[C@@H](NC(=O)c1cc2ccccc2[nH]1)C(=O)N(c1ccccc1)c1ccccc1 [Example 74, N-(2'-Indolylcarbonyl)-R-Glu-N^α,N^α -diphenylamide] | 1200 | –
3600 | – | 98 | CCCCCN(CCCCC)C(=O)[C@@H](CCC(=O)OC)NC(=O)c1cc2ccccc2[nH]1 [Example 23, N-(2'-Indolylcarbonyl)-(γ-methyl ester)-R-Glu-di-n-pentylamide] | 1300 | –
~10000 | – | 30 | CCCCCN(CCCCC)C(=O)[C@@H](CCC(=O)O)NC(=O)c1ccc2ncccc2c1 [Example 34, N-(6'-Quinolylcarbonyl)-R-Glu-N^α,N^α -d-n-pentylamide] | 53 | –
5100 | – | 30 | O=C(O)CC[C@@H](NC(=O)c1cc2ccccc2[nH]1)C(=O)N(Cc1ccccc1)Cc1ccccc1 [Example 29, N-(2'-Indolylcarbonyl)-R-Glu-N^α,N^α -dibenzylamide] | 130 | –
